As usually defined, the MIC is the lowest concentration that inhibits growth of the organism. As usually defined, the ED50 is the dose at which the effect has come halfway, by size or by number of responders.

Values after ≈ are worked out from the molar mass of the structure shown. Bounds are passed on as bounds.

The text below walks through data of ChEMBL document CHEMBL1128625, “Synthesis and antibacterial activity of cephalosporins having C-3 catechol-containing (pyridinium-4-thio)-methyl groups” (1995).

The test system of assay [1] is Staphylococcus aureus. As to the kind of experiment: In vitro antibacterial activity against Staphylococcus aureus FDA 209P bacteria. In kind it is functional.
Assay [2] relates to Pseudomonas aeruginosa. As to the kind of experiment: In vitro antibacterial activity against Pseudomonas aeruginosa ATCC 10145 bacteria. In kind it is functional.
The subject of assay [3] is Escherichia coli. The assay can be described thus: In vitro antibacterial activity against Escherichia coli NIHJ JC-2 bacteria. In kind it is functional.
Assay [4] has as its system Pseudomonas aeruginosa. The assay can be described thus: In vitro antibacterial activity against Pseudomonas aeruginosa NCTC-10490 bacteria. The class given is functional.
Assay [5] is filed under the species Mus musculus. The assay can be described thus: Challenged dose in mouse infected with Pseudomonas aeruginosa E-2. The class given is functional.
Assay [6] concerns Mus musculus. The assay can be described thus: In vivo therapeutic efficacy against systemic infections in mice using Pseudomonas aeruginosa E-2 as a test organism. The class given is functional.
For assay [7], the system named is Pseudomonas aeruginosa. As to the kind of experiment: In vivo therapeutic efficacy against systemic infections in mice using Pseudomonas aeruginosa E-2 as a test organism.
For assay [8], the system named is Mus musculus. As to the kind of experiment: In vivo therapeutic efficacy against systemic infections in mice using Pseudomonas aeruginosa E-2 as a test organism. In kind it is functional.

For the molecule `CO/N=C(\C(=O)N[C@@H]1C(=O)N2C(C(=O)[O-])=C(CSc3cc[n+](CC(=O)c4ccc(O)c(O)c4)cc3)CS[C@H]12)c1csc(N)n1`, the MIC in assay [1] was 0.78 µg/mL (≈ 1.19 µM); in assay [2], 0.39 µg/mL (≈ 0.594 µM); in assay [3] it was 0.1 µg/mL (≈ 0.152 µM); in assay [4], 0.05 µg/mL (≈ 0.0761 µM).

For `CC(C)(O/N=C(\C(=O)N[C@@H]1C(=O)N2C(C(=O)[O-])=C(CSc3cc[n+](Cc4cc(O)c(O)cn4)cc3)CS[C@H]12)c1csc(N)n1)C(=O)O`, the MIC in assay [1] was 6.25 µg/mL (≈ 8.91 µM); in assay [2], 0.39 µg/mL (≈ 0.556 µM); in assay [3], 0.78 µg/mL (≈ 1.11 µM); in assay [4] it was 0.05 µg/mL (≈ 0.0712 µM).

For the molecule `CC(C)(O/N=C(\C(=O)N[C@@H]1C(=O)N2C(C(=O)[O-])=C(C[n+]3ccccc3)CS[C@H]12)c1csc(N)n1)C(=O)O` [CEFTAZIDIME], the Challenge dose in assay [5] turned out to be 1000000 cells mouse-1. It took a dose of 34.4 mg/kg to reach the 50% effect level in assay [6] (ED50). For the same molecule, the MIC in assay [6] is 1.56 µg/mL (≈ 2.85 µM); in assay [1] it was 3.13 µg/mL (≈ 5.73 µM); in assay [2], 1.56 µg/mL (≈ 2.85 µM); in assay [3], 0.39 µg/mL (≈ 0.714 µM); in assay [4], 0.78 µg/mL (≈ 1.43 µM).

As to `CC(C)(O/N=C(\C(=O)N[C@@H]1C(=O)N2C(C(=O)[O-])=C(CSc3cc[n+](CC(=O)c4ccc(O)c(O)c4)cc3)CS[C@H]12)c1csc(N)n1)C(=O)O`, the MIC in assay [1] is 3.13 µg/mL (≈ 4.29 µM); in assay [2], 0.05 µg/mL (≈ 0.0686 µM); in assay [3] it was 0.1 µg/mL (≈ 0.137 µM); in assay [4], no more than 0.025 µg/mL.

As for `Nc1nc(/C(=N/OCC(=O)O)C(=O)N[C@@H]2C(=O)N3C(C(=O)[O-])=C(CSc4cc[n+](CC(=O)c5ccc(O)c(O)c5)cc4)CS[C@H]23)cs1`, the minimal inhibitory concentration (MIC) was 0.1 µg/mL (≈ 0.143 µM) in assay [7]; 3.13 µg/mL (≈ 4.47 µM) in assay [1]; 0.1 µg/mL (≈ 0.143 µM) in assay [2]; 0.05 µg/mL (≈ 0.0714 µM) in assay [3]; no more than 0.025 µg/mL in assay [4]. In assay [5], this molecule displayed a Challenge dose of 1000000 cells mouse-1. In addition, the ED50 in assay [8] is greater than 20 mg/kg.
